This passage reports IC50 results from patent publication US12540143B2, “Methods and compositions for targeted protein degradation” (Ranok Therapeutics (Hangzhou) Co. Ltd., priority 2019, dated 2026).

Structures can show the parent of a compound that is named as a salt.

For the first data set, the system named is MV4-11 cells. In words: MV4-11 Cytotoxicity Assay. In kind it is cell-based, human. The settings on record: 72 hr, CCK-8; read-out: MV4-11 cytotoxicity.
Regarding `CCc1cc(-c2nnc(C(N)=O)n2-c2ccc(CN3CCN(CC4CCN(C(=O)C[C@@H]5N=C(c6ccc(Cl)cc6)c6c(sc(C)c6C)-n6c(C)nnc65)CC4)CC3)cc2)c(O)cc1O` [Compound 120, (S)-4-(4-((4-((1-(2-(4-(4-chlorophenyl)-2,3,9-trimethyl-6H-thieno[3,2-f][1,2,4]triazolo[4,3-a][1,4]diazepin-6-yl)acetyl)piperidin-4-yl)methyl)piperazin-1-yl)methyl)phenyl)-5-(5-ethyl-2,4-dihydroxyphenyl)-4H-1,2,4-triazole-3-carboxamide hydrochloride], the IC50 was less than 100 nM.

Still in this data set, the particulars now being: Homo sapiens, MV4-11; 72 hr, CCK-8; read-out: MV4-11 cytotoxicity.
In the case of `CCc1cc(-c2nnc(O)n2-c2ccc(CNC(=O)C[C@@H]3N=C(c4ccc(Cl)cc4)c4c(sc(C)c4C)-n4c(C)nnc43)cc2)c(O)cc1O` [Compound 56, 2-((6S)-4-(4-chlorophenyl)-2,3,9-trimethyl-6H-thieno[3,2-f][1,2,4]triazolo[4,3-a][1,4]diazepin-6-yl)-N-(4-(3-(5-ethyl-2,4-dihydroxyphenyl)-5-hydroxy-4H-1,2,4-triazol-4-yl)benzyl)acetamide], the IC50 was 100 to 1000 nM.

With `CCN(CC)CCNC(=O)c1nnc(-c2ccc(O)cc2O)n1-c1ccc(CN2CCN(CC3CCN(C(=O)C[C@@H]4N=C(c5ccc(Cl)cc5)c5c(sc(C)c5C)-n5c(C)nnc54)CC3)CC2)cc1` [Compound 111, (S)-4-(4-((4-((1-(2-(4-(4-chlorophenyl)-2,3,9-trimethyl-6H-thieno[3,2-f][1,2,4]triazolo[4,3-a][1,4]diazepin-6-yl)acetyl)piperidin-4-yl)methyl)piperazin-1-yl)methyl)phenyl)-N-(2-(diethylamino)ethyl)-5-(2,4-dihydroxyphenyl)-4H-1,2,4-triazole-3-carboxamide, trifluoroacetic acid], the IC50 is less than 100 nM.

Regarding `Cc1sc2c(c1C)C(c1ccc(Cl)cc1)=N[C@@H](CC(=O)N(C)CCOc1ccc(CN(C)Cc3ccc(-n4c(C(=O)NCC(F)(F)F)nnc4-c4cc(C(C)C)c(O)cc4O)cc3)cc1)c1nnc(C)n1-2` [Compound 101, (S)-4-(4-(((4-(2-(2-(4-(4-chlorophenyl)-2,3,9-trimethyl-6H-thieno[3,2-f][1,2,4]triazolo[4,3-a][1,4]diazepin-6-yl)-N-methylacetamido)ethoxy)benzyl)(methyl)amino)methyl)phenyl)-5-(2,4-dihydroxy-5-isopropylphenyl)-N-(2,2,2-trifluoroethyl)-4H-1,2,4-triazole-3-carboxamide, formic acid], the IC50 was less than 100 nM.

Turning to `CCc1cc(-c2nnc(C(=O)NCC(F)(F)F)n2-c2ccc(CC3CCN(CC4CCN(C(=O)C[C@@H]5N=C(c6ccc(Cl)cc6)c6c(sc(C)c6C)-n6c(C)nnc65)CC4)CC3)cc2)c(O)cc1O` [Compound 86, (S)-4-(4-((1-((1-(2-(4-(4-chlorophenyl)-2,3,9-trimethyl-6H-thieno[3,2-f][1,2,4]triazolo[4,3-a][1,4]diazepin-6-yl)acetyl)piperidin-4-yl)methyl)piperidin-4-yl)methyl)phenyl)-5-(5-ethyl-2,4-dihydroxyphenyl)-N-(2,2,2-trifluoroethyl)-4H-1,2,4-triazole-3-carboxamide, trifluoroacetic acid], the IC50 was less than 100 nM.

Turning to `CCc1cc(-c2nnc(C(=O)NCCN3CCCCC3)n2-c2ccc(CN3CCN(CC4CCN(C(=O)C[C@@H]5N=C(c6ccc(Cl)cc6)c6c(sc(C)c6C)-n6c(C)nnc65)CC4)CC3)cc2)c(O)cc1O` [Compound 117, (S)-4-(4-((4-((1-(2-(4-(4-chlorophenyl)-2,3,9-trimethyl-6H-thieno[3,2-f][1,2,4]triazolo[4,3-a][1,4]diazepin-6-yl)acetyl)piperidin-4-yl)methyl)piperazin-1-yl)methyl)phenyl)-5-(5-ethyl-2,4-dihydroxyphenyl)-N-(2-(piperidin-1-yl)ethyl)-4H-1,2,4-triazole-3-carboxamide, trifluoroacetic acid], the IC50 is less than 100 nM.

For `CCCc1cc(-c2nnc(C(=O)NCCN3CCCCC3)n2-c2ccc(CN3CCN(CC4CCN(C(=O)C[C@@H]5N=C(c6ccc(Cl)cc6)c6c(sc(C)c6C)-n6c(C)nnc65)CC4)CC3)cc2)c(O)cc1O` [Compound 123, (S)-4-(4-((4-((1-(2-(4-(4-chlorophenyl)-2,3,9-trimethyl-6H-thieno[3,2-f][1,2,4]triazolo[4,3-a][1,4]diazepin-6-yl)acetyl)piperidin-4-yl)methyl)piperazin-1-yl)methyl)phenyl)-5-(2,4-dihydroxy-5-propylphenyl)-N-(2-(piperidin-1-yl)ethyl)-4H-1,2,4-triazole-3-carboxamide, trifluoroacetic acid], the IC50 is less than 100 nM.

With `Cc1sc2c(c1C)C(c1ccc(Cl)cc1)=N[C@@H](CC(=O)NCC1CN(C(=O)C3CCN(Cc4ccc(-n5c(O)nnc5-c5cc(C(C)C)c(O)cc5O)cc4)CC3)C1)c1nnc(C)n1-2` [Compound 59, 2-((6S)-4-(4-chlorophenyl)-2,3,9-trimethyl-6H-thieno[3,2-f][1,2,4]triazolo[4,3-a][1,4]diazepin-6-yl)-N-((1-(1-(4-(3-(2,4-dihydroxy-5-isopropylphenyl)-5-hydroxy-4H-1,2,4-triazol-4-yl)benzyl)piperidine-4-carbonyl)azetidin-3-yl)methyl)acetamide, trifluoroacetic acid], the IC50 was less than 100 nM.

Turning to `Cc1sc2c(c1C)C(c1ccc(Cl)cc1)=N[C@@H](CC(=O)NCCOCCN1CCN(Cc3ccc(-n4c(O)nnc4-c4cc(C(C)C)c(O)cc4O)cc3)CC1)c1nnc(C)n1-2` [Compound 49, 2-((6S)-4-(4-chlorophenyl)-2,3,9-trimethyl-6H-thieno[3,2-f][1,2,4]triazolo[4,3-a][1,4]diazepin-6-yl)-N-(2-(2-(4-(4-(3-(2,4-dihydroxy-5-isopropylphenyl)-5-hydroxy-4H-1,2,4-triazol-4-yl)benzyl)piperazin-1-yl)ethoxy)ethyl)acetamide, trifluoroacetic acid, trifluoroacetic acid, trifluoroacetic acid, trifluoroacetic …], the IC50 was less than 100 nM.

Regarding `Cc1sc2c(c1C)C(c1ccc(Cl)cc1)=N[C@@H](CC(=O)N1CCC(CN3CCN(Cc4ccc(-n5c(C(=O)NCCN6CCCCC6)nnc5-c5ccc(O)cc5O)cc4)CC3)CC1)c1nnc(C)n1-2` [Compound 110, (S)-4-(4-((4-((1-(2-(4-(4-chlorophenyl)-2,3,9-trimethyl-6H-thieno[3,2-f][1,2,4]triazolo[4,3-a][1,4]diazepin-6-yl)acetyl)piperidin-4-yl)methyl)piperazin-1-yl)methyl)phenyl)-5-(2,4-dihydroxyphenyl)-N-(2-(piperidin-1-yl)ethyl)-4H-1,2,4-triazole-3-carboxamide, trifluoroacetic acid], the IC50 is 100 to 1000 nM.

`Cc1sc2c(c1C)C(c1ccc(Cl)cc1)=N[C@@H](CC(=O)N1CCC(CN3CCN(Cc4ccc(-n5c(O)nnc5-c5ccc(O)cc5O)cc4)CC3)CC1)c1nnc(C)n1-2` [Compound 4, 2-((6S)-4-(4-chlorophenyl)-2,3,9-trimethyl-6H-thieno[3,2-f][1,2,4]triazolo[4,3-a][1,4]diazepin-6-yl)-1-(4-((4-(4-(3-(2,4-dihydroxyphenyl)-5-hydroxy-4H-1,2,4-triazol-4-yl)benzyl)piperazin-1-yl)methyl)piperidin-1-yl)ethanone, trifluoroacetic acid]: the IC50 fell in the range of 100 to 1000 nM.

Regarding `Cc1sc2c(c1C)C(c1ccc(Cl)cc1)=N[C@@H](CC(=O)N1CCC(CN3CCN(Cc4ccc(-n5c(C(=O)NCCN6CCCCC6)nnc5-c5cc(C(C)C)c(O)cc5O)cc4)CC3)CC1)c1nnc(C)n1-2` [Compound 107, (S)-4-(4-((4-((1-(2-(4-(4-chlorophenyl)-2,3,9-trimethyl-6H-thieno[3,2-f][1,2,4]triazolo[4,3-a][1,4]diazepin-6-yl)acetyl)piperidin-4-yl)methyl)piperazin-1-yl)methyl)phenyl)-5-(2,4-dihydroxy-5-isopropylphenyl)-N-(2-(piperidin-1-yl)ethyl)-4H-1,2,4-triazole-3-carboxamide, trifluoroacetic acid], the IC50 is less than 100 nM.

In the case of `Cc1sc2c(c1C)C(c1ccc(Cl)cc1)=N[C@@H](CC(=O)NCc1ccc(-n3c(S)nnc3-c3cc(C(C)C)c(O)cc3O)cc1)c1nnc(C)n1-2` [Compound 28, (S)-2-(4-(4-chlorophenyl)-2,3,9-trimethyl-6H-thieno[3,2-f][1,2,4]triazolo[4,3-a][1,4]diazepin-6-yl)-N-(4-(3-(2,4-dihydroxy-5-isopropylphenyl)-5-mercapto-4H-1,2,4-triazol-4-yl)benzyl)acetamide], the IC50 was in the range of 100 to 1000 nM.

As for `CCN(CC)CCNC(=O)c1nnc(-c2cc(C(C)C)c(O)cc2O)n1-c1ccc(CN2CCN(CC3CCN(C(=O)C[C@@H]4N=C(c5ccc(Cl)cc5)c5c(sc(C)c5C)-n5c(C)nnc54)CC3)CC2)cc1` [Compound 118, (S)-4-(4-((4-((1-(2-(4-(4-chlorophenyl)-2,3,9-trimethyl-6H-thieno[3,2-f][1,2,4]triazolo[4,3-a][1,4]diazepin-6-yl)acetyl)piperidin-4-yl)methyl)piperazin-1-yl)methyl)phenyl)-N-(2-(diethylamino)ethyl)-5-(2,4-dihydroxy-5-isopropylphenyl)-4H-1,2,4-triazole-3-carboxamide, trifluoroacetic acid], the IC50 was less than 100 nM.
